One assay relates to S. aureus. The assay is described as follows: Microbroth dilution MIC assay. The format is cell-based, Staphylococcus aureus. As to the method: (§1) The strains used are isolates from either the Merck Culture Collection, the Merck Clinical Culture Collection or from Clinical Trials. The strain of Haemophilus influenzae is a mouse pathogen used for in vivo testing at Merck. The Escherichia coli strain is a cell wall permeable strain. The Candida albicans strain is used as a control. These culture are maintained as frozen stocks at −80° C. in a.) Microbank beads; b.) 2× Skim Milk; or c.) in 2× Trypticase Soy Broth+15% glycerol/50% horse serum (Haemophilus and Streptococcus pneumoniae).
(§2) Selected isolates are subcultured onto either Chocolate Agar Plates (Haemophilus influenzae), onto Trypticase Soy+5% Sheep Blood Agar Plates (Streptococcus pneumoniae, Staphylococcus aureus, Escherichia coli, Enterococcus, Bacillus) or onto Sabouraud Dextrose Agar (Candida) and incubated at 35° C. Haemophilus and Streptococcus pneumoniae are incubated in 5% CO2; all other isolates are incubated in ambient air. Isolates are subcultured 2× before assay.
(§3) Colonies are selected from plates and used to prepare an inoculum equivalent to a 0.5 McFarland standard in Trypticase Soy Broth. An inoculum with a density equivalent to a 1.0 McFarland standard is prepared for Streptococcus pneumoniae. The inoculum density for all cultures is −10^8 CFU/mL in TSB. This TSB inoculum is diluted 1:10 in sterile saline (4 mL inoculum+36 mL saline; equivalent to −10^7 CFU/mL) and kept on ice until used to inoculate microtiter plates.
All wells of 96-well microtiter plates (Dynex) are filled with 100 TL media. Haemophilus test media plates are prepared to test Haemophilus influenzae; Cation-Adjusted Mueller Hinton+5% Lysed Horse Blood plates are prepared to test Streptococcus pneumoniae; Cation-Adjusted Mueller Hinton Broth plates are prepared to test Enterococcus, Staphylococcus aureus, Escherichia coli and Bacillus subtilis. RPMI 1640 is used to test Candida The MICs against S. aureus Smith are determined in Cation-adjusted Mueller Hinton and in Cation-Adjusted Mueller Hinton+50% Human Serum to determine if the compound is inactivated by some component in serum (indicated by an increase in the MIC). Filled plates are wrapped in plastic bags (to minimize evaporation), stored frozen and thawed before use.
The compounds are prepared on a weight basis. Compounds are prepared to 2 mg/mL in 100% DMSO, then diluted to 1 mg/mL in a 1:1 dilution of DMSO/2×CAMHB (final concentration=50% DMSO/50% CAMHB). […]
(§4) All wells of microtiter plates are inoculated with (saline-diluted) culture using the MIC 2000 System, an automated plate inoculating device which delivers an inoculum of 1.5 TL per well. […] Results are recorded after 22-24-hours' incubation. Plates were read to no growth.
For orientation: In broth dilution the organism is exposed to a series of concentrations in liquid medium.

A further assay has as its system E. faecalis. The experiment in a line: Microbroth dilution MIC assay. The format is cell-based, Enterococcus faecalis. The conditions noted are these: various strains of E. faecalis. As to the method:
as §1, §2
(§5) Colonies are selected from plates and used to prepare an inoculum equivalent to a 0.5 McFarland standard in Trypticase Soy Broth. […]
as §4

Another assay deals with E. faecium. The experiment in a line: Microbroth dilution MIC assay. The format is cell-based, Enterococcus faecium. As to the method: as §1, §2, §3
All wells of 96-well microtiter plates (Dynex) are filled with 100 TL media. […]
as §4

The test system of the next assay is B. subtilis. The experiment in a line: Microbroth dilution MIC assay. The format is cell-based, Bacillus subtilis. To be noted: various strains of B. subtilis. As to the method:
as §1, §2, §5, §4

Another assay concerns S. pneumoniae. The assay is described as follows: Microbroth dilution MIC assay. It counts as cell-based, Streptococcus pneumoniae. The conditions noted are these: various strains of S. pneumoniae. As to the method: as §1, §2, §5, §4
A further assay deals with E. coli. The experiment in a line: Microbroth dilution MIC assay. It counts as cell-based, Escherichia coli. The conditions noted are these: various strains of E. coli; cell wall permeable strain. As to the method: as §1, §2, §5, §4
The next assay has as its system S. epidermidis. The experiment in a line: Microbroth dilution MIC assay. The format is cell-based, Staphylococcus epidermidis. The conditions noted are these: macrolide-resistant S. epidermidis.
Assay [1] deals with vancomycin-resistant Enterococcus sp. (VRE). The experiment in a line: Microbroth dilution MIC assay. The format is cell-based. As to the method: as §1, §2, §5, §4
Assay [2] is described as follows: Microbroth dilution MIC assay, all test strains pooled. It counts as cell-based. To be noted: range over all test strains, including resistant ones; NCCLS guidelines; read-out: minimum inhibitory concentration (MIC). As to the method: as §1, §2, §5, §4

Among the data in patent publication US7745644B2, “Antibiotic compounds” (Merck Sharp & Dohme Corp., priority 2003, dated 2010) are antibacterial activity and MIC values, retold here.

Values after ≈ are worked out from the molar mass of the structure shown.

Consider `C[C@@]12C[C@]34C=CC(=O)[C@](C)(CCC(=O)Nc5c(O)ccc(C(=O)O)c5O)C3[C@@H](CC1C4)O2` (some centres unmarked) [Compound I], for which the antibacterial activity result in the assay on S. aureus (linezolid-resistant S. aureus), with S. aureus (macrolide-resistant S. aureus), with S. aureus (methicillin-resistant S. aureus (MRSA)), in the assay on S. aureus (various strains of S. aureus), with E. faecalis and in the assay with E. faecium (linezolid-resistant E. faecium) was “demonstrates antibacterial activity” each time. Further, the antibacterial activity entry with E. faecium (multidrug-resistant E. faecium), in the assay with E. faecium (various strains of E. faecium), in the assay with B. subtilis, with S. pneumoniae, in the assay on E. coli and with S. epidermidis was “demonstrates antibacterial activity” in each case. Besides, in assay [1], the antibacterial activity entry is listed as “demonstrates antibacterial activity”. For the same compound, the MIC in [2] was in the range of 0.1 to 32 µg/mL (≈ 0.227 to 72.5 µM).
